Literature values in US20120141587A1, “COMPOSITIONS AND METHODS FOR TREATMENT OR PREVENTION OF POST-OPERATIVE ORGAN OR TISSUE INFLAMMATION” (priority 2009, published 2012).

Columns and labels:
[1] = test system: atrial fibrillation; conditions: instilled into a canine's pericardial sac; Ayers et al. 1996
[2] = test system: inducible atrial flutter; conditions: oral; canine sterile pericarditis model; Goldstein et al. 2007

SMILES | effect on atrial fibrillation [1] | effect on inducible atrial flutter [2]
CCCCc1oc2ccccc2c1C(=O)c1cc(I)c(OCCN(CC)CC)c(I)c1 [amiodarone] | effectiveness in suppressing atrial fibrillation | –
C[C@]12C=CC(=O)C=C1CC[C@@H]1[C@@H]2C(=O)C[C@@]2(C)[C@H]1CC[C@]2(O)C(=O)CO [prednisone] | – | prevent inducible atrial flutter
